Literature values in patent US9227958B2, “Amorphous and crystalline forms of aprepitant and processes for the preparation thereof” (Glenmark Pharmaceuticals Limited, priority 2006, dated 2016).

What was measured:
Conditions in all cases: stated in words, background
[1] = target: human substance P/neurokinin 1 (NK1) receptors (Homo sapiens, UniProt P25103)
dopamine receptors = tested on: dopamine receptors
[2] = target: T1, serotonin (5-HT3) receptors (Homo sapiens, UniProt P46098)
T1 sequence (P46098 24-478): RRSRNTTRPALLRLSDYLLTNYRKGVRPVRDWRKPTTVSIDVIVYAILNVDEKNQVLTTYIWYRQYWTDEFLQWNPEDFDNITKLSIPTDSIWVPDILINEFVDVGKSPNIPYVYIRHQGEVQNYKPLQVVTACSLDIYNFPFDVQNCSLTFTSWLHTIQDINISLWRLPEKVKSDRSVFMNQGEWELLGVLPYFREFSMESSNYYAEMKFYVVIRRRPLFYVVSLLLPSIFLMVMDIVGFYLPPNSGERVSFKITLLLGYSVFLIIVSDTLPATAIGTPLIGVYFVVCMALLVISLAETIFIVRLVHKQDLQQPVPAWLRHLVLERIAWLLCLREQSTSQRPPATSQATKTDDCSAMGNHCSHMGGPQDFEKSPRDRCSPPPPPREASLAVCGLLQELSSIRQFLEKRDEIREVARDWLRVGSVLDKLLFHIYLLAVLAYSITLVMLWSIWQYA

corticosteroid receptors = tested on: corticosteroid receptors

Sequence of human substance P/neurokinin 1 (NK1) receptors (P25103 whole entry): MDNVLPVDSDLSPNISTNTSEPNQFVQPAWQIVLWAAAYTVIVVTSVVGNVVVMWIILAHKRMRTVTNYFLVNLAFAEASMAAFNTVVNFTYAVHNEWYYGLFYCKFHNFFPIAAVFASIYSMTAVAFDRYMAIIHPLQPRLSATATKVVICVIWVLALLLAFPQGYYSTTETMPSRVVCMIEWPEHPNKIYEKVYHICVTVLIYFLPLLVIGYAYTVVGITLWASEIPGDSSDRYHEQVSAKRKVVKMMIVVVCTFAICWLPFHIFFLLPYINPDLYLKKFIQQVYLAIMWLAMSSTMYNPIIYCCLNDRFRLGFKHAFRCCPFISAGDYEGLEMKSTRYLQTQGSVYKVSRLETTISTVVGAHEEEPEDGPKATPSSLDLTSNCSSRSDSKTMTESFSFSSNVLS

affinity / antagonism at human substance P/neurokinin 1 (NK1) receptors [1]: selective high-affinity antagonist
affinity for dopamine receptors (dopamine receptors): little or no affinity
affinity for serotonin (5-HT3) receptors [2]: little or no affinity
affinity for corticosteroid receptors (corticosteroid receptors): little or no affinity
SMILES: C[C@@H](O[C@H]1OCCN(Cc2n[nH]c(=O)[nH]2)[C@H]1c1ccc(F)cc1)c1cc(C(F)(F)F)cc(C(F)(F)F)c1 [Aprepitant]
